In ChEMBL document CHEMBL1151158, “New nitrogenous Germacranes from a Thai marine sponge, Axinyssa n. sp” (2004):
Active and inactive are the calls of the source. The rule behind the calls is not given here.

Experiments:
Assay type in all cases: functional
Candida albicans = experiment: Antimicrobial activity against Candida albicans ATCC 10231 at 500 ug/disk after 24 hrs by agar disk diffusion method
Staphylococcus aureus = experiment: Antimicrobial activity against Staphylococcus aureus ATCC 25923 at 500 ug/disk after 24 hrs by agar disk diffusion method
Bacillus subtilis = experiment: Antimicrobial activity against Bacillus subtilis ATCC 6633 at 500 ug/disk after 24 hrs by agar disk diffusion method

SMILES | zone of inhibition at 500 µg/disc (Candida albicans; ATCC 10231, 24 h, read-out: IZ) | zone of inhibition at 500 µg/disc (Staphylococcus aureus; ATCC 25923, 24 h, read-out: IZ) | zone of inhibition at 500 µg/disc (Bacillus subtilis; ATCC 6633, 24 h, read-out: IZ) | Activity (Candida albicans) | Activity (Staphylococcus aureus) | Activity (Bacillus subtilis)
C/C1=C/C[C@H](C(C)(C)N)CC/C(C)=C\CC1 | 27 mm | 23 mm | 22 mm | – | – | –
C/C1=C/C[C@H](C(C)(C)NC(=O)NC(C)(C)[C@H]2C/C=C(/C)CC/C=C(/C)CC2)CC/C(C)=C\CC1 | – | – | – | inactive | inactive | inactive
